From patent publication US20240067702A1, “LACTAM-MODIFIED P[…]” (DONGBAO PURPLE STAR (HANGZHOU) BIOPHARMACEUTICAL CO., LTD., priority 2020, published 2024)
Where two headings read alike, the source gives them in different places. *1 amine or outer side, *2 acyl side, *3 side chain or, on linkers, in order; H or OH if unused. Where a SMILES comes first, the peptide text is derived from it. Bridges are numbered along the chain shown (N, C = ends). Side-chain parts run from the residue outwards. [ ]: non-standard residue; d: D form. The star is where a group is joined. C20 diacid = O=C(O)CCCCCCCCCCCCCCCCCCC(=O)*; γGlu = O=C(O)[C@H](CCC(=O)[*:2])N[*:1]; AEEA = NCCOCCOCC(=O)O; Aib = CC(C)(N)C(=O)O

How the values were obtained:
GLP-1R = biological target: T1, GLP-1R (Homo sapiens, UniProt P43220); test: GLP-1R agonist activity test in vitro (cAMP assay); type: cell-based; conditions: GLP-IR Agonist Activity EC50 (−) 1% HSA, HEK293 host cell; without 1% HSA
T1 construct: host or cells: HEK293
Procedure: The cell strains were constructed by Shanghai WuXi AppTec.
The test compound was serially diluted 4-fold with 10 points. The initial concentration was 30 μM, and the dilution was completed with Bravo.
1) 100 nL of the compound was transferred to OptiPlate-384 plate using Echo.
7) The GLP-1R/GIPR cell concentration was diluted to 2.0*10^5/mL with the experimental buffer.
8) […] of the diluted cell suspension was transferred into the OptiPlate-384 plate.
9) The diluted cell suspension was incubated at room temperature for 30 minutes.
2) 10 μL of cAMP detection reagent was added.
3) The OptiPlate-384 plate was covered with TopSeal-A film and incubated at room temperature for 60 minutes.
TopSeal-A was removed and read in EnVision.

[1] = Pharmacokinetic evaluation in cynomolgus monkeys; type: in vivo; conditions: cynomolgus monkey, 0.02 mg/kg, single SC 0.02 mpk; for half-life: read-out: Half-life T1/2 (converted); for AUC(0-t): read-out: SC Concentration Integral AUC0-240 h
Procedure: To test the pharmacokinetics of compounds in cynomolgus monkeys in vivo
The pharmacokinetic characteristics of the compounds in mammals after intravenous injection and subcutaneous injection were tested according to the standard protocol. In the experiment, the candidate compounds were formulated into clear solutions, and a single subcutaneous injection (SC, 0.02 mpk) was given to the cynomolgus monkeys. The vehicle for subcutaneous injection was citrate buffer (20 mM, pH=7). Whole blood was collected and prepared to obtain plasma. Drug concentration was analyzed by LC-MS/MS method, and pharmacokinetic parameters were calculated by Phoenix WinNonlin software.

[2] = Kidney homogenate stability (BHS) test; type: in vitro ADME; conditions: normal mouse kidney homogenate, 37° C., read-out: BHS (T1/2 (min))
Procedure: To study the stability of the test compounds in normal mouse kidney homogenate.
1. Before the experiment, the frozen kidney homogenate was thawed in a 37° C. water bath.
2. Test compounds: 10 mM stock solution was diluted with DMSO to prepare 1 mM intermediate solution;
3. test compounds: 1 mM intermediate solution was diluted with DMSO to prepare 50 μM dosing solution;
4. at each time point (0, 10, 30, 60, 120, 180, 240 min), 100 μL of 4% H3PO4 and 800 μL of stop solution were added to precipitate the protein, and mixed thoroughly.
5. The samples were centrifuged at 4000 rpm for 10 min, and 100 μL of supernatant was taken from each well to the plate. The samples were shaken at 800 rpm for approximately 10 min before submitting for LC-MS/MS test.

T1 sequence (P43220 24-463): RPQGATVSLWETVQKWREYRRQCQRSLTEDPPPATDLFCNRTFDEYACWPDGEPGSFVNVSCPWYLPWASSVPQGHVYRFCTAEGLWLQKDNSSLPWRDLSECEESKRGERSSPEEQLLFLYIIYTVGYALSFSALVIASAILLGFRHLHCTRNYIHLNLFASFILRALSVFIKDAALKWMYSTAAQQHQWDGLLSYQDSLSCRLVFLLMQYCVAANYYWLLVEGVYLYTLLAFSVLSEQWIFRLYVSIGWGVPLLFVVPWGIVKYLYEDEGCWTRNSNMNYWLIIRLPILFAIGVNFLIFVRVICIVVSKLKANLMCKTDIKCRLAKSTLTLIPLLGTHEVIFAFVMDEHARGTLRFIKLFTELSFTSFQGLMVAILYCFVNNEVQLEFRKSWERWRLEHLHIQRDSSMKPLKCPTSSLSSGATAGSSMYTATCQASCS

Compound | EC50 (GLP-1R) | Cmax ([1]; plasma) | Tmax ([1]; plasma) | half-life ([1]; plasma) | AUC(0-t) ([1]; plasma) | half-life [2] | Cmax ([1]; in vivo) | Tmax ([1]; in vivo) | half-life ([1]; in vivo) | AUC(0-t) ([1]; in vivo) | half-life ([2]; tissue homogenate)
CC[C@H](C)[C@H](NC(=O)[C@H](CC(C)C)NC(=O)[C@H](Cc1c[nH]c2ccccc12)NC(=O)[C@@H]1CCC(=O)NCCCC[C@H](NC(=O)[C@H](CCC(N)=O)NC(=O)[C@H](C)NC(=O)[C@H](CCCCNC(=O)COCCOCCNC(=O)COCCOCCNC(=O)CC[C@H](NC(=O)CCCCCCCCCCCCCCCCCCC(=O)O)C(=O)O)NC(=O)[C@H](CCCCN)NC(=O)[C@H](CC(=O)O)NC(=O)[C@H](CC(C)C)NC(=O)C(C)(C)NC(=O)[C@@H](NC(=O)[C@H](CO)NC(=O)[C@H](Cc2ccc(O)cc2)NC(=O)[C@H](CC(=O)O)NC(=O)[C@H](CO)NC(=O)[C@@H](NC(=O)[C@H](Cc2ccccc2)NC(=O)[C@@H](NC(=O)CNC(=O)[C@H](CCC(=O)O)NC(=O)C(C)(C)NC(=O)[C@@H](N)Cc2ccc(O)cc2)[C@@H](C)O)[C@@H](C)O)[C@@H](C)CC)C(=O)N[C@@H](CCC(=O)O)C(=O)N[C@@H](Cc2ccccc2)C(=O)N[C@@H](C(C)C)C(=O)N1)C(=O)N[C@@H](C)C(=O)NCC(=O)NCC(=O)N1CCC[C@H]1C(=O)N[C@@H](CO)C(=O)N[C@@H](CO)C(=O)NCC(=O)N[C@@H](C)C(=O)N1CCC[C@H]1C(=O)N1CCC[C@H]1C(=O)N1CCC[C@H]1C(=O)N[C@@H](CO)C(N)=O [WX-005] (H-Y[Aib]EGTFTSDYSI[Aib]LDKK([AEEA-AEEA-γGlu-C20 diacid])AQKEFVEWLIAGGPSSGAPPPS-NH2; lactam 20-24) | 0.042 nM | 31 nM | 40 h | 4.08 days | 4.55 µM·h | 21 min | – | – | – | – | –
CC[C@H](C)[C@H](NC(=O)[C@H](CC(C)C)NC(=O)[C@H](Cc1c[nH]c2ccccc12)NC(=O)[C@@H]1CCC(=O)NCCCC[C@H](NC(=O)[C@H](CCC(N)=O)NC(=O)[C@H](C)NC(=O)[C@H](CCCCNC(=O)COCCOCCNC(=O)COCCOCCNC(=O)CC[C@H](NC(=O)CC[C@H](NC(=O)CCCCCCCCCCCCCCCCCCC(=O)O)C(=O)O)C(=O)O)NC(=O)[C@H](CCCCN)NC(=O)[C@H](CC(=O)O)NC(=O)[C@H](CC(C)C)NC(=O)C(C)(C)NC(=O)[C@@H](NC(=O)[C@H](CO)NC(=O)[C@H](Cc2ccc(O)cc2)NC(=O)[C@H](CC(=O)O)NC(=O)[C@H](CO)NC(=O)[C@@H](NC(=O)[C@H](Cc2ccccc2)NC(=O)[C@@H](NC(=O)CNC(=O)[C@H](CCC(=O)O)NC(=O)C(C)(C)NC(=O)[C@@H](N)Cc2ccc(O)cc2)[C@@H](C)O)[C@@H](C)O)[C@@H](C)CC)C(=O)N[C@@H](C)C(=O)N[C@@H](Cc2ccccc2)C(=O)N[C@@H](C(C)C)C(=O)N1)C(=O)N[C@@H](C)C(=O)NCC(=O)NCC(=O)N1CCC[C@H]1C(=O)N[C@@H](CO)C(=O)N[C@@H](CO)C(=O)NCC(=O)N[C@@H](C)C(=O)N1CCC[C@H]1C(=O)N1CCC[C@H]1C(=O)N1CCC[C@H]1C(=O)N[C@@H](CO)C(N)=O [WX-002] (H-Y[Aib]EGTFTSDYSI[Aib]LDKK([AEEA-AEEA-γGlu-γGlu-C20 diacid])AQKAFVEWLIAGGPSSGAPPPS-NH2; lactam 20-24) | 0.052 nM | – | – | – | – | – | 33 nM | 29 h | 3.38 days | 4.58 µM·h | 20 min
CC[C@H](C)[C@H](NC(=O)[C@H](CC(C)C)NC(=O)[C@H](Cc1c[nH]c2ccccc12)NC(=O)[C@@H]1CCC(=O)NCCCC[C@H](NC(=O)[C@H](CCC(N)=O)NC(=O)[C@H](C)NC(=O)[C@H](CCCCNC(=O)COCCOCCNC(=O)COCCOCCNC(=O)CC[C@H](NC(=O)CCCCCCCCCCCCCCCCCCC(=O)O)C(=O)O)NC(=O)[C@H](CCCCN)NC(=O)[C@H](CC(=O)O)NC(=O)[C@H](CC(C)C)NC(=O)C(C)(C)NC(=O)[C@@H](NC(=O)[C@H](CO)NC(=O)[C@H](Cc2ccc(O)cc2)NC(=O)[C@H](CC(=O)O)NC(=O)[C@H](CO)NC(=O)[C@@H](NC(=O)[C@H](Cc2ccccc2)NC(=O)[C@@H](NC(=O)CNC(=O)[C@H](CCC(=O)O)NC(=O)C(C)(C)NC(=O)[C@@H](N)Cc2ccc(O)cc2)[C@@H](C)O)[C@@H](C)O)[C@@H](C)CC)C(=O)N[C@@H](C)C(=O)N[C@@H](Cc2ccccc2)C(=O)N[C@@H]([C@@H](C)CC)C(=O)N1)C(=O)N[C@@H](C)C(=O)NCC(=O)NCC(=O)N1CCC[C@H]1C(=O)N[C@@H](CO)C(=O)N[C@@H](CO)C(=O)NCC(=O)N[C@@H](C)C(=O)N1CCC[C@H]1C(=O)N1CCC[C@H]1C(=O)N1CCC[C@H]1C(=O)N[C@@H](CO)C(N)=O [WX-006] (H-Y[Aib]EGTFTSDYSI[Aib]LDKK([AEEA-AEEA-γGlu-C20 diacid])AQKAFIEWLIAGGPSSGAPPPS-NH2; lactam 20-24) | 0.051 nM | 30 nM | 29 h | 3.02 days | 3.64 µM·h | 234 min | – | – | – | – | –
